Source: patent US20100021893A1, “Modulators of lanosterol synthetase for treating acne or hyperseborrhea” (GALDERMA RESEARCH & DEVELOPMENT, priority 2006, published 2010)

Tested on: mRNA for lanosterol synthetase in the mouse preputial gland
Details: gonadectomized male mice, short-term treatment, Affymetrix, effect visible at 18, 24 and 96 hours
Procedure: The expression of the genes was analyzed on an Affymetrix station (microfluidic model; hybridization oven; scanner; computer) following the protocols provided by the company. Briefly, the total RNA isolated from the tissues is transcribed to cDNA. From the double-stranded cDNA, a cRNA labeled with biotin is synthesized using T7 polymerase and a precursor NTP conjugated to biotin. The cRNAs are then fragmented to small sized fragments. All the molecular biology steps are checked using the Agilent “Lab on a chip” system in order to confirm the good efficiencies of the enzymatic reactions. The Affymetrix chip is hybridized with the biotinylated cRNA, rinsed and then fluorescence labeled using a fluorophore conjugated to streptavidin. After washings, the chip is scanned and the results are calculated using the MAS5 software provided by Affymetrix. An expression value is obtained for each gene as well as the indication of the significance of the value obtained. […]
The gene expression was analyzed using the Affymetrix technology described above (FIG. 1A) and the results were then confirmed by the real-time PCR technique (FIG. 1B).
B. Male mice were gonadectomized and were then treated with the vehicle or DHT. […] The RNA was isolated and the expression of the genes was analyzed by the Affymetrix technique. […]

For `C[C@]12CCC(=O)C[C@@H]1CC[C@@H]1[C@@H]2CC[C@]2(C)[C@@H](O)CC[C@@H]12` [DHT, Dihydrotestosterone], the “level of expression of the mRNA for lanosterol synthetase” value was “induced”.
